Holding throughout (assay type): functional
The subject of one assay is Candida albicans. Description: Antifungal activity Candida albicans ATCC 90028 after 48 hr by broth microdilution method. The conditions noted are these: ATCC 90028, 48 h. On the technique in general: Dilution methods test growth across graded concentrations, often in twofold steps.
In another assay the test system is Escherichia coli. The assay can be described thus: Antibacterial activity Escherichia coli ATCC 25922 after 16 to 20 hr by broth microdilution method.
Another assay deals with Enterococcus faecalis. Description: Antibacterial activity Enterococcus faecalis ATCC 29212 after 16 to 20 hr by broth microdilution method.
A further assay has as its system Staphylococcus aureus. The assay can be described thus: Antibacterial activity Staphylococcus aureus […] after 16 to 20 hr by broth microdilution method.
Another assay has as its system Pseudomonas aeruginosa. Description: Antibacterial activity Pseudomonas aeruginosa ATCC 27853 after 16 to 20 hr by broth microdilution method.

Values after ≈ are worked out from the molar mass of the structure shown.

By MIC is commonly meant the smallest concentration in the dilution series that meets the test's criterion for growth inhibition. As to `OC(Cn1cncn1)(Cn1cncn1)c1ccc(F)cc1F` [FLUCONAZOLE], in the assay on Candida albicans, inhibition of growth (MIC) required 0.25 µg/mL (≈ 0.816 µM).

With `CC1(C)S[C@@H]2[C@H](NC(=O)[C@H](N)c3ccccc3)C(=O)N2[C@H]1C(=O)O` [AMPICILLIN], the MIC came out at 6.25 µg/mL (≈ 17.9 µM) with Escherichia coli, 0.78 µg/mL (≈ 2.23 µM) with Enterococcus faecalis and 0.78 µg/mL (≈ 2.23 µM) against Staphylococcus aureus.

Turning to `S=C1COc2ccccc2CN1c1ccc(I)cc1`, the MIC against Candida albicans is 800 µg/mL (≈ 2100 µM); against Escherichia coli, 100 µg/mL (≈ 262 µM); in the assay with Pseudomonas aeruginosa, 50 µg/mL (≈ 131 µM); against Enterococcus faecalis, 50 µg/mL (≈ 131 µM); against Staphylococcus aureus, 400 µg/mL (≈ 1050 µM).

As for `CN(C)c1ccc(N2Cc3ccccc3OCC2=S)cc1`, the minimum inhibitory concentration (MIC) against Candida albicans came out at 800 µg/mL (≈ 2680 µM); against Escherichia coli it was 200 µg/mL (≈ 670 µM); against Pseudomonas aeruginosa it was 100 µg/mL (≈ 335 µM); in the assay with Enterococcus faecalis, 25 µg/mL (≈ 83.8 µM); in the assay with Staphylococcus aureus it was 400 µg/mL (≈ 1340 µM).

Consider `O=[N+]([O-])c1ccc(N2Cc3ccccc3OCC2=S)cc1`, for which the MIC against Candida albicans is 800 µg/mL (≈ 2660 µM); in the assay with Escherichia coli, 200 µg/mL (≈ 666 µM); in the assay on Pseudomonas aeruginosa, 50 µg/mL (≈ 166 µM); against Enterococcus faecalis, 50 µg/mL (≈ 166 µM); in the assay on Staphylococcus aureus, greater than 1600 µg/mL.

`O=[N+]([O-])c1cccc(N2Cc3ccccc3OCC2=S)c1`: the MIC turned out to be 200 µg/mL (≈ 666 µM) against Candida albicans; 100 µg/mL (≈ 333 µM) in the assay on Escherichia coli; 25 µg/mL (≈ 83.2 µM) in the assay with Pseudomonas aeruginosa; 25 µg/mL (≈ 83.2 µM) against Enterococcus faecalis; 200 µg/mL (≈ 666 µM) against Staphylococcus aureus.

Turning to `Fc1ccc(N2Cc3ccccc3OCC2=S)cc1`, the minimal inhibitory concentration (MIC) in the assay with Candida albicans turned out to be 400 µg/mL (≈ 1460 µM); in the assay on Escherichia coli, 100 µg/mL (≈ 366 µM); in the assay with Pseudomonas aeruginosa, 100 µg/mL (≈ 366 µM); against Enterococcus faecalis, 50 µg/mL (≈ 183 µM); in the assay on Staphylococcus aureus, 800 µg/mL (≈ 2930 µM).

As to `COc1ccc(N2Cc3ccccc3OCC2=S)cc1`, the MIC against Candida albicans was found to be 800 µg/mL (≈ 2800 µM); against Escherichia coli it was 200 µg/mL (≈ 701 µM); in the assay on Pseudomonas aeruginosa, 100 µg/mL (≈ 350 µM); against Enterococcus faecalis it was 50 µg/mL (≈ 175 µM); with Staphylococcus aureus, 400 µg/mL (≈ 1400 µM).

In the case of `S=C1COc2ccccc2CN1c1ccccc1`, the MIC with Candida albicans was determined as 800 µg/mL (≈ 3130 µM); with Escherichia coli, 200 µg/mL (≈ 783 µM); in the assay with Pseudomonas aeruginosa, 100 µg/mL (≈ 392 µM); in the assay on Enterococcus faecalis, 100 µg/mL (≈ 392 µM); in the assay with Staphylococcus aureus it was 800 µg/mL (≈ 3130 µM).

As to `COc1cccc(N2Cc3ccccc3OCC2=S)c1`, the MIC in the assay on Candida albicans is 100 µg/mL (≈ 350 µM); against Escherichia coli, 100 µg/mL (≈ 350 µM); in the assay with Pseudomonas aeruginosa, 50 µg/mL (≈ 175 µM); in the assay with Enterococcus faecalis, 25 µg/mL (≈ 87.6 µM); against Staphylococcus aureus it was 200 µg/mL (≈ 701 µM).

With `Cc1cccc(N2Cc3ccccc3OCC2=S)c1`, the MIC against Candida albicans turned out to be 800 µg/mL (≈ 2970 µM); with Escherichia coli, 400 µg/mL (≈ 1480 µM); in the assay with Pseudomonas aeruginosa, 100 µg/mL (≈ 371 µM); against Enterococcus faecalis, 50 µg/mL (≈ 186 µM); in the assay on Staphylococcus aureus, 800 µg/mL (≈ 2970 µM).

With `S=C1COc2ccccc2CN1c1ccc(Br)cc1`, the MIC worked out at 100 µg/mL (≈ 299 µM) against Candida albicans; 100 µg/mL (≈ 299 µM) with Escherichia coli; 25 µg/mL (≈ 74.8 µM) against Pseudomonas aeruginosa; 12.5 µg/mL (≈ 37.4 µM) in the assay on Enterococcus faecalis; 100 µg/mL (≈ 299 µM) with Staphylococcus aureus.

As to `O=C(O)c1cn(C2CC2)c2cc(N3CCNCC3)c(F)cc2c1=O` [CIPROFLOXACIN], the figures for the MIC in the assay with Escherichia coli, against Enterococcus faecalis and in the assay on Staphylococcus aureus were 0.04 µg/mL (≈ 0.121 µM), 0.25 µg/mL (≈ 0.754 µM) and 0.25 µg/mL (≈ 0.754 µM), respectively.

As for `S=C1COc2ccccc2CN1c1cccc(Cl)c1`, the MIC was 800 µg/mL (≈ 2760 µM) in the assay on Candida albicans; 200 µg/mL (≈ 690 µM) against Escherichia coli; 200 µg/mL (≈ 690 µM) against Pseudomonas aeruginosa; 100 µg/mL (≈ 345 µM) in the assay with Enterococcus faecalis; 400 µg/mL (≈ 1380 µM) in the assay on Staphylococcus aureus.

Take `S=C1COc2ccccc2CN1c1ccc(Cl)cc1`: the MIC in the assay with Candida albicans is 800 µg/mL (≈ 2760 µM); with Escherichia coli, 400 µg/mL (≈ 1380 µM); in the assay on Pseudomonas aeruginosa, 100 µg/mL (≈ 345 µM); against Enterococcus faecalis, 25 µg/mL (≈ 86.3 µM); in the assay on Staphylococcus aureus, 400 µg/mL (≈ 1380 µM).

`Cc1ccc(N2Cc3ccccc3OCC2=S)cc1`: the MIC in the assay on Candida albicans is 200 µg/mL (≈ 742 µM); in the assay with Escherichia coli, 200 µg/mL (≈ 742 µM); against Pseudomonas aeruginosa, 25 µg/mL (≈ 92.8 µM); against Enterococcus faecalis it was 25 µg/mL (≈ 92.8 µM); with Staphylococcus aureus, 200 µg/mL (≈ 742 µM).

With `FC(F)(F)c1cccc(N2Cc3ccccc3OCC2=S)c1`, the MIC amounted to 400 µg/mL (≈ 1240 µM) against Candida albicans; 100 µg/mL (≈ 309 µM) in the assay with Escherichia coli; 50 µg/mL (≈ 155 µM) in the assay on Pseudomonas aeruginosa; 25 µg/mL (≈ 77.3 µM) with Enterococcus faecalis; 400 µg/mL (≈ 1240 µM) in the assay with Staphylococcus aureus.

For the origin of these results see ChEMBL document CHEMBL3045204, “Synthesis and structureantibacterial activity relationship studies of 4-substituted phenyl-4,5-dihydrobenzo[f][1,4]oxazepin-3(2H)-thiones” (2011).
